The values that follow come from patent US20210332024A1, “MODULATORS OF PIN1 ACTIVITY AND USES THEREOF” (Yeda Research and Development Co. Ltd., priority 2019, published 2021).

Series [1] has as its system Kuramochi ovarian carcinoma cells. Description: Prolonged-treatment cell growth, Kuramochi. The format is cell-based. As to conditions: 1 or 2.5 μM. The procedure: (§1) The ability of Pin1-3 treatment to induce more pronounced anti-proliferative effects after prolonged treatment (6-8 days) was then assessed. In order to ensure that target engagement was maintained for the duration of the experiment, Pin1-3 was replenished in fresh media every 48 hours.

A short description of series [2]: Thiol reactivity assay (DTNB). Conditions: 200 μM compound, pH 7.4, 37° C. The format is physicochemical.
Series [3] has as its system 8988T pancreatic adenocarcinoma cells. In words: Prolonged-treatment cell growth, wild-type 8988T. The format is cell-based. Conditions: 1 μM, 6-8 days. As for the experimental part:
as §1
The effect of Pin1-binding compounds on 8988T pancreatic adenocarcinoma cells was assessed by incubating cells with 1 μM Pin1-3, and evaluating cell growth relative to cells incubated with vehicle (DMSO) alone. In order to confirm that the effect of Pin1-3 is mediated by Pin1, the experiment was repeated using Pin1 knockout cells.

In a further series the test system is PDAC organoids. Description: PDAC organoid growth. It counts as cell-based, human. Conditions: treated for 7 days. The procedure: Pancreatic ductal adenocarcinoma (PDAC) cells (derived from a human patient) were treated with Pin1-3 for 3 days. PDAC organoids were treated with Pin1-3 for 7 days (day 7 to day 14).
The test system of series [4] is cysteine residues on a proteome-wide scale, PATU-8988T cells. Description: CITe-Id chemoproteomic selectivity experiment. It counts as cell-based. Conditions: PATU-8988T cells, 100, 500 or 1000 nM for 5 hours. As for the experimental part:
In order to profile the selectivity of Pin1-3, a Covalent Inhibitor Target-site Identification (CITe-Id) experiment [Browne et al., […] 2019, 141, 191-203] was performed, as depicted in FIG. 28.
This chemoproteomic platform enables the identification and quantification of the dose-dependent binding of covalent inhibitors to cysteine residues on a proteome-wide scale. In this competition experiment, live PATU-8988T cells were incubated with Pin1-3 (100, 500 or 1000 nM) for 5 hours, followed by cell lysis and co-incubation with Pin1-3-DTB (2 μM) for 18 hours. Following trypsin digest and avidin enrichment, the DTB-modified peptides were analyzed by shotgun LC-MS/MS.

Series [5] relates to MDA-MB-468 breast adenocarcinoma cells. Description: Prolonged-treatment cell growth, MDA-MB-468. It counts as cell-based. As to conditions: MDA-MB-468, 1 or 2.5 μM. The procedure:
as §1

For series [6], the system named is MYCN-overexpressing PSNS neuroblasts. In words: Zebrafish embryo model of MYCN-driven neuroblastoma. It counts as in vivo. The source says: Zebrafish were used for a model of childhood neuroblastoma, in which the tissue-specific overexpression of the human MYCN transgene using the dopamine β hydroxylase (dβh) promoter in the zebrafish peripheral sympathetic nerve system (PSNS) drives neuroblastoma tumorigenesis in zebrafish [Zhu et al., Cancer Cell 2012, 21:362-373]. The fish are also transgenic for a PSNS-specific dβh:EGFP reporter line, so that the tumors can be visualized by EGFP. In this model, hyperproliferation of sympathetic neuroblasts is evident in the […] (counterpart of the adrenal medulla) starting at 4 days post-fertilization (dpf).
Zebrafish embryos at 3 dpf were treated with different concentrations of the test compound in the egg water (reverse osmosis or RO water with 0.6 gm/liter instant ocean salts) for 4 days. The embryos were transferred to egg water containing freshly diluted drug after 2 days (5 dpf). The embryos were then imaged at 7 dpf, and the relative EGFP+MYCN-overexpressing neuroblast cross-sectional area for each experimental group was quantified.
The effect of Pin1-binding […] on neuroblastoma cells was assessed using a zebrafish embryo model of neuroblastoma, using procedures described in the Materials and Methods section hereinabove. Neuroblastoma is a pediatric malignancy derived from the peripheral sympathetic nervous system (PSNS). […] Overexpression of the MYCN oncogene, which is the oncogenic driver in approximately 20% of human high-risk neuroblastomas, in the PSNS of Tg(dβh:MYCN;dβh:EGFP) transgenic zebrafish, causes the fish to develop neuroblast hyperplasia (as shown, for example, in FIG. 42), which rapidly progress into fully transformed tumors that faithfully resemble human high-risk neuroblastoma [Zhu et al., Cancer Cell 2012, 21:362-373; He et al., Elife 2016, 5; Zimmerman et al., Cancer Discov 2016, 8:320-335].

Another series can be described thus: Acute toxic model. It counts as in vivo, mice. Conditions: 10, 20 or 40 mg/kg intraperitoneally every day for two weeks. The procedure: Toxicity of Pin1-3 was then evaluated in an acute toxic model. Mice were injected with 10, 20 or 40 mg/kg Pin1-3 intraperitoneally every day for two weeks.

Turning to `CC(C)(C)CN(C(=O)CCl)C1CCS(=O)(=O)C1` (stereo not shown) [Pin1-3, 2-chloro-N-(sulfolan-3-yl)-N-neopentylacetamide], in series [1], the Cell growth entry is on record as “long-term inhibition”. For the same molecule, in series [2], the “Reactivity Log k” value is recorded as −7.43 and the Reactivity k came out at 3.73e-08 M⁻¹ s⁻¹. Moreover, in series [3], the “Cell viability / growth” value is given as “reduced pancreatic cancer cell viability”. Further, the PDAC organoid growth result with PDAC organoids is “inhibited PDAC organoid growth in a dose-dependent manner”. In series [4], the “Dose-dependent competition among 162 cysteine residues labeled by Pin1-3-DTB” value is recorded as “only Pin1 Cys113 exhibited dose-dependent competition”. Further, the Cell growth result in series [5] was “long-term inhibition”. For the same molecule, the “Cross-section of the EGFP-expressing PSNS cells” value in series [6] (100 μM for 4 days) is on record as “indistinguishable from that of controls without hyperproliferation”. In addition, the Toxicity in embryos entry in series [6] (25 to 100 μM in the egg water) is on record as “no evidence of toxicity”. For the same molecule, the “Hyperproliferation of MYCN-overexpressing PSNS neuroblasts” value in series [6] (25 to 100 μM in the egg water, 3 to 7 dpf) is reported as “suppressed the hyperproliferation of MYCN-overexpressing PSNS neuroblasts”. Moreover, in the series “Acute toxic model”, the Adverse effects result is on record as “No adverse effects”, the Post-mortem examination entry is “no pathologies” and the Weight result is listed as “normal”.
